{"source": "patent US20140194531A1", "about": "“HYDROXYTYROSOL BENEFITS MITOCHONDRIA” (DSM IP Assets B.V., priority 2008, published 2014)", "key": {"PGC-1α": {"test_system": "PGC-1α", "experiment": "PGC-1α protein level in adipocytes (Western blot)", "type": "cell-based, murine", "details": "3T3-L1 adipocytes, 1.0 μM, maximum, p<0.05 vs. control", "experimental": "Murine 3T3-L1 pre-adipocytes (American Type Culture Collection) were cultured in Dulbecco's Modified Eagle's Medium (DMEM) supplemented with 10% fetal bovine serum and allowed to reach confluence. Differentiation of pre-adipocytes was initiated with 1 μM insulin, 0.25 μM dexamethasone and 0.5 mM 3-isobutyl-1-methylxanthine in DMEM, supplemented with 10% fetal bovine serum. After 48 h, the culture medium was replaced with DMEM supplemented with 10% fetal bovine serum and 1 μM insulin. The culture medium was changed every other day with DMEM containing 10% fetal bovine serum. […] After treatment, cells were washed twice with ice-cold PBS, lysed in sample buffer (62.5 mM Tris-Cl pH 6.8, 2% SDS, 5 mM DTT) at room temperature and vortexed. Cell lysates were then boiled for 5 minutes and cleared by centrifugation (13,000 rpm, 10 minutes at 4° C.). Protein concentration was determined using the Bio-Rad DC protein assay. The soluble lysates (10 μg per lane) were subjected to 10% SDS-PAGE, proteins were then transferred to nitrocellulose membranes and blocked with 5% non-fat milk/TBST for 1 h at room temperature. […] Western blots were developed using ECL (Roche Manheim, Germany) and quantified by scanning densitometry."}, "[1]": {"test_system": "mitochondrial electron transport complex I", "experiment": "Mitochondrial complex I protein expression in adipocytes (Western blot)", "type": "cell-based, murine", "details": "3T3-L1 adipocytes, 48 hrs", "experimental": "Murine 3T3-L1 pre-adipocytes (American Type Culture Collection) were cultured in Dulbecco's Modified Eagle's Medium (DMEM) supplemented with 10% fetal bovine serum and allowed to reach confluence. Differentiation of pre-adipocytes was initiated with 1 μM insulin, 0.25 μM dexamethasone and 0.5 mM 3-isobutyl-1-methylxanthine in DMEM, supplemented with 10% fetal bovine serum. After 48 h, the culture medium was replaced with DMEM supplemented with 10% fetal bovine serum and 1 μM insulin. The culture medium was changed every other day with DMEM containing 10% fetal bovine serum. […] After treatment, cells were washed twice with ice-cold PBS, lysed in sample buffer (62.5 mM Tris-Cl pH 6.8, 2% SDS, 5 mM DTT) at room temperature and vortexed. Cell lysates were then boiled for 5 minutes and cleared by centrifugation (13,000 rpm, 10 minutes at 4° C.). Protein concentration was determined using the Bio-Rad DC protein assay. The soluble lysates (10 μg per lane) were subjected to 10% SDS-PAGE, proteins were then transferred to nitrocellulose membranes and blocked with 5% non-fat milk/TBST for 1 h at room temperature. Membranes were incubated with primary antibodies directed against PPAR-y (1:1000), PGC-1α (1:1000), α-tubulin (1:10 000), Complex I (1:2000), Complex II (1:2000), Complex III (1:2000) and Complex V (1:2000) in 5% milk/TBST at 4° C. overnight. After washing membranes with TBST three times, membranes were incubated with horseradish peroxidase-conjugated secondary antibody for 1 h at room temperature. Western blots were developed using ECL (Roche Manheim, Germany) and quantified by scanning densitometry."}, "mice (C57BL/6NCrl)": {"test_system": "mice (C57BL/6NCrl)", "experiment": "Maximal running performance on a treadmill (endurance)", "type": "in vivo", "details": "olive extract containing 50% hydroxytyrosol, 50, 150 or 300 mg/kg body weight per day by gavage, 3 weeks", "source_text": "The purpose of the study was to determine the effect of hydroxytyrosol on maximal running performance on a treadmill.\nIn short, forty mice (C57BL/6NCrl; 8 wks old) were purchased from Charles River (Sulzfeld, Germany) and housed individually with free access to water and feed, with an alternating 12-hour light-dark cycle. The animals were fed a standard rodent diet (Ssniff R/M-H, Ext. n° V1536, Ssniff Ltd., Soest, Germany). After 2 weeks of adaptation to the diet the mice were randomized according to body weight into four experimental groups of 10 animals. The four groups were treated orally every morning for 3 weeks with either water (control group) or with an olive extract diluted to 0.2 ml with water and containing 50% hydroxytyrosol at doses of 50, 150, or 300 mg/kg body weight per day. There was no difference in feed consumption over the whole experiment. After 3 weeks of treatment the maximal running distance on a treadmill was measured. Statistical significance of the mean differences between dietary groups was tested by one-way analysis of variance (ANOVA). If significant differences were found, the Dunnett's test for multiple comparison was used to compare each group to the control group. P values less than 0.05 were considered significant."}}}
{"smiles": "OCCc1ccc(O)c(O)c1", "note": "[hydroxytyrosol, 3,4-dihydroxyphenylethanol]", "values": [{"measurement": "PGC-1α protein expression (PGC-1α:α-tubulin ratio, vs. control)", "setting": "PGC-1α", "value": "205±52", "unit": "%"}, {"measurement": "mitochondrial electron transport complex I protein (vs. control)", "setting": "[1]; 0.1 μM, p<0.05", "value": "131±16", "unit": "%"}, {"measurement": "mitochondrial electron transport complex I protein (vs. control)", "setting": "[1]; 1.0 μM, p<0.01", "value": "163±31", "unit": "%"}, {"measurement": "mitochondrial electron transport complex I protein (vs. control)", "setting": "[1]; 10.0 μM, p<0.05", "value": "138±21", "unit": "%"}, {"measurement": "increase of endurance", "setting": "mice (C57BL/6NCrl)", "value": "up to 50%"}]}
